According to patent US11850238B2, “Use of a thienopyridone derivative in the treatment of adrenoleukodystrophy or adrenomyeloneuropathy” (POXEL, priority 2020, dated 2023):

Key:
[1] = system: ALD patient-derived lymphocytes; test: Hexacosanoic acid (VLCFA) level in ALD patient-derived lymphocytes; type: cell-based, human
Description: After studies on cells from patients with the […] of ALD (AMN) the inventors replicated the same study method as in example 1 to analyze the effect of PXL770 on cells from X-ALD patients (severe inflammatory phenotype).
The experiments described in Examples 3 and 7 were performed with metformin by the same lab and described by Singh et al. in Journal of Neurochemistry, 2016; 138, 86-100.

[2] = system: AMN human patient-derived primary lymphocytes; test: Hexacosanoic acid (VLCFA) level in AMN patient-derived lymphocytes, LC-MS; type: cell-based
Description: In order to show the efficacy of PXL770 to lower very long chain fatty acids (VLCFA) in vitro, the study focuses on the level assessment of the hexacosanoic acid, which is the most prevalent VLCFA, in healthy control cells and in AMN human patient-derived primary lymphocytes. The cell lines were obtained from Coriell Cell Repositories. Lymphocytes were cultured in RPMI-1640 with 10% fetal bovine serum (FBS). The cultures were split in 1:5 ratio. Lymphocytes from healthy patients were used as control. All treatments were in complete media containing fetal bovine serum (FBS, 15%). All cultured cells were maintained at 37° C. in 5% CO2.
VLCFA content was then measured as follows. Samples are adjusted to a final volume of 0.5-1 ml with LC-MS grade water and spiked with 10 ng of Lignoceric acid-d4 as an internal standard. The sample is acidified to pH 3-4 with dilute hydrochloric acid and extracted with isooctane-ethyl acetate (9:1) three times with equal volume. The extract is dried under nitrogen and the residue is reconstituted in methanol-water-ammonium acetate (75:25:10 mM).
Total fatty acids: After preparing the samples with internal standard as described above for free fatty acids, aqueous sodium hydroxide is added to a final concentration of 1 M. The mixture is incubated at 37° C. in dark under nitrogen for 3 h. […]
LC-MS analysis of fatty acids: The reconstituted fatty acid extracts are subjected to HPLC on Targa C8 column (2×10 mm) using methanol-aqueous ammonium acetate (10 mM) solvent mixture. […] The column eluent is directly introduced to mass analyzer (QTRAP5500) and monitored for fatty acids using published pseudo MRM method. […] Each fatty acid is quantitated against the added internal standard.
First, the evolution of hexacosanoic acid in lymphocytes is monitored in healthy control cells and in AMN human patient-derived primary lymphocytes; and in a second time a treatment of PXL770 was assigned to AMN human-derived primary lymphocytes in culture at different concentrations (5 μM, 10 μM, 25 μM, 50 μM) for one week and the level of hexacosanoic acid was measured. […]

ABCD1-KO mice [3] = test: In vivo X-ALD mouse, 90 days: VLCFA (C26:0) in spinal cord; details: male ABCD1-KO mice, 75 mg/kg oral gavage twice a day, FIG. 13
Description: Male ABCD1-KO mice (n=8) were treated with oral gavage of PXL770 (75 mg/kg) twice a day, every day for 90 days. Untreated ABCD1-KO mice (n=8) and wild-type (WT) mice (n=8) served as controls. Post-treatment mice were sacrificed and spinal cord was collected for VLCFA analysis. The analysis was performed according to the standardized protocols of the Lipidomics Core Facility and data are expressed as VLCFA μg/ml levels. Hexacosanoic acid (C26:0) was selected as representative for VLCFAs.

ABCD1-KO mice [4] = test: In vivo X-ALD mouse, 60 days: VLCFA (C26:0) in brain cortex and plasma; details: male ABCD1-KO mice, 75 mg/kg oral gavage twice a day
Description: Male ABCD1-KO mice (n=15) were treated with oral gavage of PXL770 (75 mg/kg) twice a day, every day for 60 days. Untreated ABCD1-KO mice (n=15) and wild-type (WT) mice (n=12) served as controls. Post-treatment mice were sacrificed and brain cortex and plasma were collected for VLCFA analysis. The analysis was performed according to the standardized protocols of the Lipidomics Core Facility and data are expressed as VLCFA μg/ml levels. Hexacosanoic acid (C26:0) was selected as representative for VLCFAs.
A one-way ANOVA with Dunnett's multiple comparison test was performed to assess the effect of PXL770 on brain's VLCFAs (**** p<0.0001, *** p<0.001). A Kruskal-Wallis test with Dunn's multiple comparison test was performed to assess the effect of PXL770 on plasma's VLCFAs (**** p<0.0001, […]).

ABCD2 [5] = test: Western blot of ABCD2 expression in ALD-KO mouse brain cortex mixed glial cells; type: cell-based; details: vs non-treated, FIG. 4
Description: (§1) The cells were washed with cold Tris-buffered saline (20 mM Trizma base and 137 mM NaCl, pH 7.5) and lysed in 1×SDS sample-loading buffer (62.5 mM Trizma base, 2% [w/v] SDS, 10% glycerol), and after sonication and centrifugation at 15,000 g for 5 min, the supernatant was used for the immunoblot assay. The protein concentration of samples was determined with the detergent compatible protein assay reagent (Bio-Rad) using BSA as the standard. The sample was boiled for 3 min with 0.1 volumes of 10% β mercaptoethanol and 0.5% bromphenol blue mix. Then, 40 μg of total cellular protein was resolved by electrophoresis on 8 or 12% polyacrylamide gels, electrotransferred and blocked with Tween 20-containing Tris-buffered saline (TBST; 10 mM Trizma base, pH 7.4, 1% Tween 20, and 150 mM NaCl) with 5% skim milk. After incubation with antibodies against ABCD2, ABCD3, and (β-actin at 4^0 overnight, the membranes were then washed with TBST and incubated with horseradish peroxidase-conjugated anti-rabbit or mouse IgG for 1 h at room temperature. The membranes were detected by autoradiography using ECL-plus (Amersham Biosciences) after washing with TBST buffer.
The same experimental protocol as in example 4 was performed for ALD-KO mouse brain cortex mixed glial cells. This model is mainly a model for AMN. […]

ABCD2 [6] = test: Western blot of ABCD2 expression in AMN fibroblasts; type: cell-based, human; details: AMN fibroblasts, 5, 10, 25 μM, vs control and untreated AMN fibroblasts; FIG. 2
Description: More specifically, protein extraction was performed as follows.
as §1
The experiments described in Examples 4 and 6 were performed with metformin by the same lab and described by Singh et al. in Journal of Neurochemistry, 2016; 138, 86-100.

[7] = ALD lymphocytes, increasing concentrations, FIG. 5

Q: For O=c1[nH]c2sc(Cl)c(-c3ccc4c(c3O)CCCC4)c2c([O-])c1-c1ccccc1.[K+] [PXL770, monohydrate potassium salt of 2-chloro-4-hydroxy-3-(5-hydroxytetralin-6-yl)-5-phenyl-7H-thieno[2,3-b]pyridin-6-one], which “level of hexacosanoic acid” value [1, 7] is on record?
A: The value was “decreases”.

Q: And the “level of hexacosanoic acid compared to healthy controls” value [1, 7]?
A: The value was “same level as that present in lymphocytes of healthy controls”.

Q: What about the “VLCFA content, normalization” value ([1]; ALD patient cells, 5 μM) of the same compound?
A: Its value is “normalization effect”.

Q: And the “level of hexacosanoic acid” value ([2]; AMN lymphocytes, all doses tested (5, 10, 25, 50 μM), one week, FIG. 1)?
A: Its value is “strongly decreases”.

Q: What about the “level of hexacosanoic acid compared to healthy controls” value ([2]; AMN lymphocytes, doses of 5 and 50 μM, one week, FIG. 1) of the same compound?
A: Its value is “same level as that present in lymphocytes of healthy controls”.

Q: And the “VLCFA content, normalization” value ([2]; AMN patient cells, 5 μM)?
A: Its value is “normalization effect”.

Q: What about the “VLCFA accumulation in the spinal cord” value (ABCD1-KO mice [3]) of the same compound?
A: The value was “significantly reduces”.

Q: What about the “VLCFA accumulation in the brain cortex” value (ABCD1-KO mice [4]; FIG. 7) of the same compound?
A: Its value is “significantly reduces”.

Q: What about the “VLCFA accumulation in the plasma” value (ABCD1-KO mice [4]; FIG. 8) of the same compound?
A: Its value is “significantly reduces”.

Q: And the “expression of ABCD2 (Western blot)” value (ABCD2 [5])?
A: Its value is “overexpression”.

Q: And the “expression of ABCD2 (Western blot)” value (ABCD2 [6])?
A: The value was “overexpression”.
